One may read the EC50 as the midpoint of the concentration-response curve.

The structures appear in SMILES notation. Bounds are passed on as bounds.

This is an account of results in patent US20260374754A1, “N-((ISOQUINOLIN-6-YL)METHYL)-1H-PYRAZOLE-4-CARBOXAMIDE DERIVATIVES AS PLASMA KALLIKREIN INHIBITORS FOR THE TREATMENT OF HEREDITARY ANGIODEMA” (Takeda Pharmaceutical Company Limited, priority 2022, published 2026).

human activated kallikrein enzyme, sequence (P03952 391-638 limits assumed): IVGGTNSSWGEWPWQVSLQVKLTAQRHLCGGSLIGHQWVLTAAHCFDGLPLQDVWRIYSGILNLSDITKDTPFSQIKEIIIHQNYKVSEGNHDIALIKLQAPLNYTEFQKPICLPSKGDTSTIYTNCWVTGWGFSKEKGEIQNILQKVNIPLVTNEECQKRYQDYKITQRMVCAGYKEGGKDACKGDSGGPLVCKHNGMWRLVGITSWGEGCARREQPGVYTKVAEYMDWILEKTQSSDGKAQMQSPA
human activated kallikrein enzyme, sequence (P03952 20-390 partner limits assumed): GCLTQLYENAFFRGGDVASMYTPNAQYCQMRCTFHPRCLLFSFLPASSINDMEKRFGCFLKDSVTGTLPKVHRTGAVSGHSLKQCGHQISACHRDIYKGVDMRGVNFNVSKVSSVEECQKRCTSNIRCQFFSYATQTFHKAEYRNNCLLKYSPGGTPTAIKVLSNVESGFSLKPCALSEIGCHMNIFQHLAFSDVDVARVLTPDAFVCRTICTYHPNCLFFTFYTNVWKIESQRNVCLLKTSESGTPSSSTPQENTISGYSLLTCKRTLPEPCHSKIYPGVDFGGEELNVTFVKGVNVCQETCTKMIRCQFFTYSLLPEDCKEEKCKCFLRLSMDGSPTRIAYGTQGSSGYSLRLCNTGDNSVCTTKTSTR

The assay has as its target human activated kallikrein enzyme (Homo sapiens, UniProt P03952). In words: Inhibition of human activated plasma kallikrein, fluorogenic PFR-AMC substrate, 500 pM enzyme format. It is filed as biochemical. Particulars: 500 pM activated kallikrein; 300 μM PFR-AMC; 30 min preincubation; 10 min room temperature; pH 7.5; read-out: Primary Dose Response Assay: Average EC50. A digest of the protocol:
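500 pM activated kallikrein preincubated 30 min at room temperature with inhibitors in pH 7.5 Tris/EDTA/NaCl buffer with PEG-400 and Triton X-100. Reaction started with 300 μM PFR-AMC, run 10 min at room temperature; AMC fluorescence read at ex 380/em 460 nm.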
As for `Cc1cc2c(N)nccc2c(C)c1CNC(=O)c1cnn(Cc2ccc(CC(=O)N3CCOCC3)cc2)c1` [Example 225, N-((1-amino-5,7-dimethylisoquinolin-6-y1)methyl)-1-(4-(2-morpholino-2-oxoethyl)benzyl)-1H-pyrazole-4-carboxamide], the EC50 was in the range of 1 to 10 nM.

As to `Cc1cc2c(N)nccc2c(C)c1CNC(=O)c1cnn(Cc2ccc(Cc3nnco3)cc2)c1` [Example 44, 1-(4-((1,3,4-oxadiazol-2-yl)methyl)benzyl)-N-((1-amino-5,7-dimethylisoquinolin-6-yl)methyl)-1H-pyrazole-4-carboxamide], the EC50 is 1 to 10 nM. For the compound `Cc1cc2c(N)nccc2c(C)c1CNc1cnnc(OCc2ccc(Cn3cccn3)cc2)c1` [Example 530, 6-(((6-((4-((1H-pyrazol-1-yl)methyl)benzyl)oxy)pyridazin-4-yl)amino)methyl)-5,7-dimethylisoquinolin-1-amine], the EC50 was in the range of 10 to 100 nM.

As to `Nc1nccc2cc(CNc3cc(OCc4ccc(Cn5cccn5)cc4)ncn3)c(C(F)(F)F)cc12` [Example 535, 6-(((6-((4-((1H-pyrazol-1-yl)methyl)benzyl)oxy)pyrimidin-4-yl)amino)methyl)-7-(trifluoromethyl)isoquinolin-1-amine], the EC50 was in the range of 100 to 1000 nM.

In the case of `Cc1cc2c(N)nccc2c(C)c1CNc1cc(OCc2ccc(Cc3cccn4ccnc34)cc2)cnn1` [Example 444, 6-(((5-((4-(imidazo[1,2-a]pyridin-8-ylmethyl)benzyl)oxy)pyridazin-3-yl)amino)methyl)-5,7-dimethylisoquinolin-1-amine], the EC50 is under 1 nM. Regarding `Cc1cc2c(N)nccc2c(C)c1CNC(=O)c1cnn(Cc2ccc(C3CCN(C)C3=O)cc2)c1` (stereo not shown) [Example I-475, N-((1-amino-5,7-dimethylisoquinolin-6-yl)methyl)-1-(4-(1-methyl-2-oxopyrrolidin-3-yl)benzyl)-1H-pyrazole-4-carboxamide], the 50% effective concentration (EC50) fell in the range of 1 to 10 nM. As to `Cc1cc2c(N)nccc2c(C)c1CNc1cc(OCc2ccc3ncccc3c2)cnn1` [Example 409, 5,7-dimethyl-6-(((5-(quinolin-6-ylmethoxy)pyridazin-3-yl)amino)methyl)isoquinolin-1-amine], the EC50 was in the range of 1 to 10 nM. As to `Cc1cc2c(N)nccc2c(C)c1CNC(=O)c1cnn(Cc2ccc(CC(N)=O)cc2)c1` [Example 231, 1-(4-(2-amino-2-oxoethyl)benzyl)-N-((1-amino-5,7-dimethylisoquinolin-6-yl)methyl)-1H-pyrazole-4-carboxamide], the concentration giving a half-maximal response (EC50) was in the range of 10 to 100 nM.

Take `Cc1ccc2nc(Cn3cc(C(=O)NCc4c(C)cc5c(N)nccc5c4C)cn3)nn2c1` [Example 15, N-((1-amino-5,7-dimethylisoquinolin-6-yl)methyl)-1-((6-methyl-[1,2,4]triazolo[1,5-a]pyridin-2-yl)methyl)-1H-pyrazole-4-carboxamide]: the concentration giving a half-maximal response (EC50) is under 1 nM. For `CCC(c1ccc(CNc2cc(NCc3c(C)cc4c(N)nccc4c3C)ncn2)cc1)n1cccn1` (stereo not shown) [Example I-484, N^4-(4-(1-(1H-pyrazol-1-yl)propyl)benzyl)-N^6-((1-amino-5,7-dimethylisoquinolin-6-yl)methyl)pyrimidine-4,6-diamine], the concentration giving a half-maximal response (EC50) is under 1 nM. Take `Cc1cc(CNc2cc(NCc3c(C)cc4c(N)nccc4c3C)ncn2)cc(C)c1CC(=O)N(C)C` [Compound 360]: the EC50 was under 1 nM. As to `Cc1cc2c(N)nccc2c(C)c1CNC(=O)c1cc(CN)n(Cc2ccccc2)n1` [Example 203, N-((1-amino-5,7-dimethylisoquinolin-6-y1)methyl)-5-(aminomethyl)-1-benzyl-1H-pyrazole-3-carboxamide], the EC50 is over 1000 nM. As to `Cc1cc2c(N)nccc2c(C)c1CNc1cc(C(O)c2cn3cc(C4CC4)ccc3n2)ccn1` (stereo not shown) [Example 453, (2-(((1-amino-5,7-dimethylisoquinolin-6-yl)methyl)amino)pyridin-4-yl)(6-cyclopropylimidazo[1,2-a]pyridin-2-yl)methanol], the EC50 was under 1 nM.
